# Data taken from US7972870B2, “Methods and compositions relating to the regulation of MUC1 by HSF1 and STAT3” (Dana-Farber Cancer Institute, Inc., priority 2007, dated 2011).
# B1: His-tagged MUC1: purified His-tagged MUC1 cytoplasmic domain (MUC1-CD, SEQ ID NO:2) (protein, listed as Homo sapiens)
# chain: CQCRRKNYGQLDIFPARDTYHPMSEYPTYHTHGRYVPPSSTDRSPYEKVSAGNGGSSLSYTNPAVAAASANL
# modifications: His tag
# B2: HRG: heregulin (HRG) (Calbiochem-Novabiochem), ligand activating ErbB2, ErbB3 and ErbB4 (protein, listed as Homo sapiens)
# chain: MEIYSPDMSEVAAERSSSPSTQLSADPSLDGLPAAEDMPEPQTEDGRTPGLVGLAVPCCACLEAERLRGCLNSEKICIVPILACLVSLCLCIAGLKWVFVDKIFEYDSPTHLDPGGLGQDPIISLDATAASAVWVSSEAYTSPVSRAQSESEVQVTVQGDKAVVSFEPSAAPTPKNRIFAFSFLPSTAPSFPSPTRNPEVRTPKSATQPQTTETNLQTAPKLSTSTSTTGTSHLVKCAEKEKTFCVNGGECFMVKDLSNPSRYLCKCPNEFTGDRCQNYVMASFYSTSTPFLSLPE
# Experiments:
# [1] = system: MUC1 expression in MCF10A cells; assay: MUC1 expression by immunoblot of whole-cell lysates after stimulation; assay type: cell-based
# Description: FIG. 2A is a pair of photographs of immunoblots depicting the induction of MUC1 expression following heregulin (HRG) treatment. MCF10A cells were cultured without (“0”) and with HRG (20 ng/mL) for 24 (“24”) and 48 (“48”) hours. Cells were harvested at the indicated time points and lysed for western blot analysis. Whole-cell lysates were subjected to sodium dodecyl sulfate polyacrylamide gel electrophoresis (SDS-PAGE) under reducing conditions and proteins were detected (immunoblotted, “IB”) using antibodies specific for MUC1-C and β-actin (top and bottom photographs, respectively). The relative positions (e.g., the molecular weights) of the proteins are reported in kilodaltons (kDa) and indicated to the left of each of the immunoblots (e.g., 25 kDa or 45 kDa). “HRG” indicates treatment with heregulin.
# FIG. 2C is a photograph of an immunoblot depicting the induction of MUC1 expression following IL-6 treatment. MCF10A cells were treated without (“0”) and with IL-6 (20 ng/mL) and then cultured at 37° C. for 24 (“24”) and 48 (“48”) hours. Cells were harvested at the indicated time points and lysed for western blot analysis. Whole-cell lysates were subjected to SDS-PAGE under reducing conditions and proteins were detected (immunoblotted, “IB”) using antibodies specific for MUC1-C. The relative positions (e.g., the molecular weights) of the proteins are reported in kilodaltons (kDa) and indicated to the left of the immunoblot. “IL-6” indicates IL-6 treatment.
# Heregulin treatment of cells results in (i) activation of ErbB2, ErbB3, and ErbB4 and (ii) induction of the formation of complexes between these receptors and MUC1. To assess if MUC1 is regulated by heregulin in normal cells, the induction of MUC1 expression by heregulin treatment was assessed in the immortalized, but non-cancer breast cell line MCF10A. […] As a control for loading, β-actin was detected using anti-β-actin (Sigma, St. Louis, Mo.). […]
# GST-STAT3 = GST-STAT3 (Homo sapiens, UniProt P40763); assay: In vitro GST pull-down binding assay; settings: purified His-tagged MUC1-CD, GST as control, immunoblot
# Chain of GST-STAT3 (P40763 whole entry): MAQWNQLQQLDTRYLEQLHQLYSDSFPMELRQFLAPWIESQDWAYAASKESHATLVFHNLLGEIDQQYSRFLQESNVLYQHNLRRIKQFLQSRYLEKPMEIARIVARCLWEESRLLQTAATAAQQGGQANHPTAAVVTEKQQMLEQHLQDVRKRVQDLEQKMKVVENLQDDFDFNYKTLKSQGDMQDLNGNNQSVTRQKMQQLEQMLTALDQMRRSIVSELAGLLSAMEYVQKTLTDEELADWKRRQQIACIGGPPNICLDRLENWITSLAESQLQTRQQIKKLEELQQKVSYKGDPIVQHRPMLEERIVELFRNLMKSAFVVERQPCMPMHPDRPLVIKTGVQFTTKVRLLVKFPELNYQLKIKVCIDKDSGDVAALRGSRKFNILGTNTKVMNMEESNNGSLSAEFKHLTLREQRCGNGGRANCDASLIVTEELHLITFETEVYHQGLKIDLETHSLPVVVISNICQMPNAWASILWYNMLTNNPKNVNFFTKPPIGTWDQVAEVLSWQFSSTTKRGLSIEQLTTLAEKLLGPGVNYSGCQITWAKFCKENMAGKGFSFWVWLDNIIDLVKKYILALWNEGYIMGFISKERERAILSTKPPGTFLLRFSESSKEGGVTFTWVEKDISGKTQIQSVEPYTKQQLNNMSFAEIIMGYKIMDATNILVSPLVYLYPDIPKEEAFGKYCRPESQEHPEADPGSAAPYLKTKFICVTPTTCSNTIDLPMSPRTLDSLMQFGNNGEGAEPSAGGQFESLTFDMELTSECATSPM
# Description: The binding of MUC1 to HSF1 could be direct or indirect, for example, through a third protein. To determine if the interaction between MUC1 and HSF1 is a direct, physical interaction, in vitro binding assays was performed. GST- and GST-STAT3 polypeptides were incubated with purified His-tagged MUC1-CD (similar to GST-HSF1-His-MUC1 experiments described above). The protein mixtures were then incubated with glutathione beads, which bind to the GST proteins and associated binding partners if present. The glutathione bead adsorbates were washed and immunoblotted with antibodies specific for His tags or to MUC1-C (as described above).
molecule,measurement,setting,value
IL-6: inflammatory cytokine IL-6 (R&D Systems) that activates STAT3 through the Janus kinases,MUC1 expression,"[1]; 0.1% serum overnight, 20 ng/mL IL-6, expected result",induce both STAT3 phosphorylation (activation) and MUC1 expression
same,MUC1 expression,"[1]; IL-6 20 ng/mL, 24 and 48 hours (FIG. 2C)",induces MUC1 expression
B1,binding to GST-STAT3 (glutathione bead adsorbates),GST-STAT3,present in GST-STAT3 adsorbates but not GST-adsorbates
B2,MUC1 protein expression,"[1]; 20 ng/mL HRG, anti-MUC1-C immunoblot (FIG. 2A)",increase in MUC1 protein expression
